Literature values in PMC7395068, “The evolution of strategies to minimise the risk of human drug-induced liver injury (DILI) in drug discovery and development” (Archives of Toxicology, 2020).
Like-named read-outs stand apart in the source and are kept apart here.

How the values were obtained:
[1] = system: HepG2 cells; conditions: cited from earlier work; for Structural based (HCI), In vitro Assay: HepG2 HCI
[2] = cited from earlier work
[3] = system: isolated mouse liver mitochondria; conditions: In vitro Assay; ref Porceddu 2012; cited from earlier work
[4] = system: human hepatocytes; conditions: In vitro Assay; ref Xu 2008; cited from earlier work
[5] = ref Chen 2016; cited from earlier work
[6] = system: primary human hepatocytes, NIH3T3 fibroblasts, BSEP, CYP3A4; conditions: In vitro Assay; ref Schadt 2015; cited from earlier work
[7] = system: THLE or HepG2 cells, isolated mitochondria, BSEP; conditions: cited from earlier work
[8] = In vitro Assay, ref O'Brien 2006
[9] = assignment in O'Brien 2006, ref O'Brien 2006

CCCCN1CCCCC1C(=O)Nc1c(C)cccc1C (centres unmarked) [bupivacaine]
Structural based (HCI) [1, 8]: +VE (lowest HCI endpoint IC50 (or in the absence of dose–response < 100 µM) < 30 × total human plasma exposure levels (Cmax.tot)) | In vivo DILI ([2]; ref O'Brien 2006): -VE | In vivo DILI ([2]; ref Porceddu 2012): +VE | In vivo DILI ([2]; ref Xu 2008): -VE | in vitro data EC2<=1x Cmax [3]: -VE | in vitro data EC20<=2uM [3]: -VE | Structural based (HCI) [4]: -VE

CC(C)(O/N=C(\C(=O)N[C@@H]1C(=O)N2C(C(=O)[O-])=C(C[n+]3ccccc3)CS[C@H]12)c1csc(N)n1)C(=O)O [ceftazidime]
DILI +VE (5-8), DILI -VE (-4) [5]: +VE | DILI severity category [5]: vLess-DILI-Concern | Structural based (HCI) [1, 8]: +VE (lowest HCI endpoint IC50 (or in the absence of dose–response < 100 µM) < 30 × total human plasma exposure levels (Cmax.tot)) | In vivo DILI ([2]; […]): +VE | In vivo DILI ([2]; ref O'Brien 2006): +VE

COc1cccc2c1C(=O)c1c(O)c3c(c(O)c1C2=O)C[C@@](O)(C(=O)CO)C[C@@H]3O[C@H]1C[C@H](N)[C@H](O)[C@H](C)O1 [doxorubicin]
DILI +VE (5-8), DILI -VE (-4) [5]: +VE | DILI severity category [5]: vLess-DILI-Concern | Structural based (HCI) [1, 8]: +VE | In vivo DILI ([2]; […]): +VE | In vivo DILI ([2]; ref O'Brien 2006): +VE | In vivo DILI ([2]; ref Porceddu 2012): +VE | In vivo DILI ([2]; ref Schadt 2015): -VE | in vitro data EC2<=1x Cmax [3]: +VE | in vitro data EC20<=2uM [3]: +VE | Cellular toxicity (3T3 cells) [6]: +VE | GSH adduct HML [6]: -VE | Hepatocyte cellular toxicity [6]: -VE | MitoTox 3T3 [6]: -VE | TDI CYP3A4 [6]: -VE | hBSEP inhibition [6]: -VE

CCOC(=O)[C@H](CCc1ccccc1)N[C@@H](C)C(=O)N1CCC[C@H]1C(=O)O [enalapril]
DILI +VE (5-8), DILI -VE (-4) [5]: +VE | DILI severity category [5]: vLess-DILI-Concern | Structural based (HCI) [1, 8]: +VE (lowest HCI endpoint IC50 (or in the absence of dose–response < 100 µM) < 30 × total human plasma exposure levels (Cmax.tot)) | In vivo DILI ([2]; ref O'Brien 2006): +VE

O=C(O)c1ccccc1Nc1cccc(C(F)(F)F)c1 [flufenamate]
Structural based (HCI) [1, 8]: +VE (lowest HCI endpoint IC50 (or in the absence of dose–response < 100 µM) < 30 × total human plasma exposure levels (Cmax.tot)) | In vivo DILI ([2]; ref O'Brien 2006): -VE

O=C(O)P(=O)(O)O [foscarnet]
DILI +VE (5-8), DILI -VE (-4) [5]: -VE | DILI severity category [5]: Ambiguous DILI-concern | Structural based (HCI) [1, 8]: +VE (lowest HCI endpoint IC50 (or in the absence of dose–response < 100 µM) < 30 × total human plasma exposure levels (Cmax.tot)) | In vivo DILI ([2]; ref O'Brien 2006): -VE

FC(F)(F)C(Cl)Br (centres unmarked) [halothane]
Structural based (HCI), In vitro Assay ([1]; ref O'Brien 2006): +VE | In vivo DILI [2, 9]: -VE

NNc1nncc2ccccc12 [hydralazine]
DILI +VE (5-8), DILI -VE (-4) [5]: +VE | DILI severity category [5]: vLess-DILI-Concern | Structural based (HCI) [1, 8]: +VE (lowest HCI endpoint IC50 (or in the absence of dose–response < 100 µM) < 30 × total human plasma exposure levels (Cmax.tot)) | In vivo DILI ([2]; […]): +VE | In vivo DILI ([2]; ref O'Brien 2006): +VE

CC(C(=O)O)c1ccc(N2Cc3ccccc3C2=O)cc1 (centres unmarked) [indoprofen]
Structural based (HCI), In vitro Assay ([1]; ref O'Brien 2006): +VE | In vivo DILI [2, 9]: -VE

NC[C@H]1O[C@H](O[C@H]2[C@H](O)[C@@H](O[C@H]3O[C@H](CO)[C@@H](O)[C@H](N)[C@H]3O)[C@H](N)C[C@@H]2N)[C@H](O)[C@@H](O)[C@@H]1O [kanamycin]
Partition Hybrid HRM Score [7]: -VE | Ro2 Hybrid HRM Score [7]: -VE | Structural based (HCI) [1]: +VE

CC12CC3CC(C)(C1)CC(N)(C3)C2 [memantine]
DILI +VE (5-8), DILI -VE (-4) [5]: +VE | DILI severity category [5]: vLess-DILI-Concern | Structural based (HCI) [1, 8]: -VE | In vivo DILI ([2]; ref O'Brien 2006): -VE | In vivo DILI ([2]; ref Xu 2008): -VE | Structural based (HCI) [4]: -VE

C=C1c2cccc(O)c2C(=O)C2=C(O)[C@]3(O)C(=O)C(C(N)=O)=C(O)[C@@H](N(C)C)[C@@H]3[C@@H](O)[C@H]12 [methacycline]
Structural based (HCI) [1, 8]: +VE (lowest HCI endpoint IC50 (or in the absence of dose–response < 100 µM) < 30 × total human plasma exposure levels (Cmax.tot)) | In vivo DILI ([2]; ref O'Brien 2006): +VE | In vivo DILI ([2]; ref Xu 2008): +VE | Structural based (HCI) [4]: +VE

CC[C@H](C)C(=O)O[C@H]1CCC=C2C=C[C@H](C)[C@H](CC[C@@H]3C[C@@H](O)CC(=O)O3)[C@H]21 [mevastatin]
Structural based (HCI), In vitro Assay ([1]; ref O'Brien 2006): -VE | In vivo DILI [2, 9]: -VE

O=C(O)c1cccnc1 [niacin]
Partition Hybrid HRM Score ([7]; In vitro Assay, ref Aleo 2019): +VE | Ro2 Hybrid HRM Score ([7]; In vitro Assay, ref Aleo 2019): -VE | Structural based (HCI) [1, 8]: -VE

COC(=O)Nc1nc2ccc(C(=O)c3cccs3)cc2[nH]1 [nocodazole]
Structural based (HCI) [1, 8]: +VE (lowest HCI endpoint IC50 (or in the absence of dose–response < 100 µM) < 30 × total human plasma exposure levels (Cmax.tot)) | In vivo DILI ([2]; ref O'Brien 2006): -VE | In vivo DILI ([2]; ref Xu 2008): -VE | Structural based (HCI) [4]: -VE
